Results from patent US5759836A, “Osteoarthritis-associated inducable isoform of nitric oxide synthetase” (priority 1995, dated 1998).

Tested on: iNOS
Test: iNOS protein expression, Western blot, LPS-treated RAW 264.7 cells
Format: cell-based, murine
Experimental: Western Blot Analysis. Equal amounts of protein (50 μg) estimated by BCA reagent (Pierce, Rockford, Ill.) were loaded onto SDS-PAGE gels and stained to verify the concentrations of various protein fractions by examining the intensities of the protein bands on the gels. Western blot analysis was carried out from the same cell extracts. The Western-blotted membrane was probed with a specific anti-iNOS monoclonal antibody, as specified by Transduction Laboratories (Lexington, Ky.). The blots were developed using the ECL Western blot system (Amersham, Arlington Heights, Ill.). Quantitation of the bands was performed using a densitometer from Molecular Dynamics (Sunnyville, Calif.).
The protein expression data are represented as
ND = not done. NS = not significant.
A Western blot analysis of iNOS protein was carried out in cells treated with […] LPS in the presence and absence of NSAIDs for 16-18 h.

CC(=O)Oc1ccccc1C(=O)O [Aspirin, aspirin]
decrease of iNOS expression (10 mM, Western blot, 10000 µM): ~ 70%
effect on iNOS expression, Western blot (LPS, 16-18 h, indomethacin 5 μM): significant decrease in the expression of iNOS
inhibition at 10000 µM (Mus musculus, RAW264.7, read-out: decrease of iNOS expression, 10 mM, Western blot): 69%
inhibition at 3000 µM (Mus musculus, RAW264.7, read-out: inhibition of iNOS protein expression, 3 mM, approximate, densitometry): ~53%
